Test results as given in patent EP2526945A1, “New CRTH2 Antagonists” (Almirall, S.A., priority 2011, dated 2012).

Target: T1, CRTh2 receptor (Homo sapiens, UniProt Q9Y5Y4)
T1 construct: expressed in transfected cells; host or cells: CHO.K1 cells (membranes)
T1 sequence (Q9Y5Y4 1-395): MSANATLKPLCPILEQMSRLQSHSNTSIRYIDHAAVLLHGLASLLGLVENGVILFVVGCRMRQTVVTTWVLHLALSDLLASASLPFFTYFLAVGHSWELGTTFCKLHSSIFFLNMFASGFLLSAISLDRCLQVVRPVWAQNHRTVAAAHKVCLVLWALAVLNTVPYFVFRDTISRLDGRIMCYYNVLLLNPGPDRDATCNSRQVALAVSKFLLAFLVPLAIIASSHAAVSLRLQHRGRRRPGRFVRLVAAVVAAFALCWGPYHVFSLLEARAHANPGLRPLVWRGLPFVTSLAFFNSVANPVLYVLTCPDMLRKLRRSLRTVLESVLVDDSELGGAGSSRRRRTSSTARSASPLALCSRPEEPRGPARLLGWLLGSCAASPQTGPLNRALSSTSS
Experiment: CRTh2 GTPγS antagonism binding assay
Type: biochemical
Conditions: membranes from CHO.K1 cells stably overexpressing the CRTh2 receptor; PGD2 at 50 nM (EC80); [35S]-GTPγS as radioligand; read-out: GTPγ Binding
Description: CRTh2 GTPγS antagonism binding assay
The assay is performed using membranes obtained from CHO.K1 cells stably overexpressing the CRTh2 receptor and [^35S]-GTPγS as radioligand. Assay is performed pre-incubating 4-8 µg of membranes per well with the compound to be tested for 1 h, followed by incubation with PGD2 at 50 nM (EC80), 0.1 nM [^35S]-GTPγS in incubation buffer (20 mM HEPES, 10 mM MgCl2, 100 mM NaCl, 10 µM GDP, 10 µg/ml Saponine and 0.2% BSA) for 2 h at room temperature. The reaction is terminated by filtering in GF/C plates pre-treated with 20 mM HEPES, 10 mM MgCl2, 100 mM NaCl and washing 6 times with wash buffer (20 mM NaH2PO4, 20 mM Na2HPO4). After washing, plates are dried and scintillation buffer Optiphase added. The radioactivity retained in the filter is counted using a Microbeta liquid scintillation counter.

`Cc1c(Cc2ccccc2S(=O)(=O)c2cccc(Cl)c2)c2c(n1CC(=O)O)CCNC2=O` [Example 8, (3-{2-[(3-Chlorophenyl)sulfonyl]benzyl}-2-methyl-4-oxo-4,5,6,7-tetrahydro-1H-pyrrolo[3,2-c]pyridin-1-yl)acetic acid] and `Cc1c(Cc2cc(F)ccc2S(=O)(=O)c2ccccc2)c2c(n1CC(=O)O)CCNC2=O` [Example 37, {3-[5-Fluoro-2-(phenylsulfonyl)benzyl]-2-methyl-4-oxo-4,5,6,7-tetrahydro-1H-pyrrolo[3,2-c]pyridin-1-yl}acetic acid] are within 1.5-fold of each other in IC50: 4 nM for the first, 3.7 nM for the second.

Compared with `Cc1c(Cc2ccccc2S(=O)(=O)c2ccccc2)c2c(n1[C@H](C)C(=O)O)CCNC2=O` [Example 20, (2R)-2-{2-Methyl-4-oxo-3-[2-(phenylsulfonyl)benzyl]-4,5,6,7-tetrahydro-1H-pyrrolo [3,2-c]pyridin-1-yl}propanoic acid], `COc1cccc(Cc2c3c(n(CC(=O)O)c2C)CCNC3=O)c1S(=O)(=O)c1ccccc1` [Example 21, {3-[3-Methoxy-2-(phenylsulfonyl)benzyl]-2-methyl-4-oxo-4,5,6,7-tetrahydro-1H-pyrrolo[3,2-c]pyridin-1-yl}acetic acid] is 2.2-fold higher in IC50: 9.2 nM for the first, 20 nM for the second. The first is the more potent here.

`COc1ccc(S(=O)(=O)c2ccc(F)cc2)c(Cc2c3c(n(CC(=O)O)c2C)CC(C)(C)NC3=O)c1` [Example 62, (3-{2-[(4-Fluorophenyl)sulfonyl]-5-methoxybenzyl}-2,6,6-trimethyl-4-oxo-4,5,6,7-tetrahydro-1H-pyrrolo[3,2-c]pyridin-1-yl)acetic acid] and `Cc1c(Cc2ccccc2S(=O)(=O)c2ccc(OC(F)(F)F)cc2)c2c(n1CC(=O)O)CCNC2=O` [Example 16, [2-Methyl-4-oxo-3-(2-{[4-(trifluoromethoxy)phenyl]sulfonyl}benzyl)-4,5,6,7-tetrahydro-1H-pyrrolo[3,2-c]pyridin-1-yl]acetic acid] are within 1.5-fold of each other in IC50: 4.8 nM for the first, 6.9 nM for the second.
